Experimental data from patent publication US20200009211A1, “CURCUMIN-CONTAINING MEDICINAL PREPARATION” (SAN-EI GEN F.F.I., INC., priority 2017, published 2020).

Assay: Curcumin administration test (A) in HFD-challenged mice: plasma TCHO, CM, LDL (Test Example 11)
Assay type: in vivo, mice (C57BL/6)
Settings: HFD-challenged C57BL/6 mice, ad libitum drinking of aqueous liquid for 12 weeks
Protocol: In this test, total cholesterol (TCHO), chylomicron (CM), and LDL cholesterol (LDL) were measured. […] After the feeding period, blood was sampled and centrifuged at […] at 4° C. for 15 minutes to obtain plasma. The plasma was measured by a Fuji Dri-Chem 4000V biochemical automatic analyzer (Fujifilm, Tokyo, Japan).

SMILES: CC(C)(Oc1ccc(CCNC(=O)c2ccc(Cl)cc2)cc1)C(=O)O [Bezafibrate]
- CM (chylomicron) in plasma: 0.53 mg/dL
- LDL (LDL cholesterol) in plasma: 17.9 mg/dL
- TCHO (total cholesterol) in plasma: 125.0 mg/dL
